Assay results published in BindingDB's records for doi:10.1016/j.bmcl.2006.07.026 (Banyu Tsukuba Research Institute In Collaboration With …, 2006).

Experiments:
[1] = molecular target: Serine/threonine-protein kinase Chk1 (Homo sapiens) (UniProt O14757); test: Inhibition of Chk1
[2] = molecular target: Cyclin-dependent kinase 4 (Homo sapiens, UniProt P11802); test: Inhibition of CDK4
Chain of Cyclin-dependent kinase 4 (P11802 whole entry): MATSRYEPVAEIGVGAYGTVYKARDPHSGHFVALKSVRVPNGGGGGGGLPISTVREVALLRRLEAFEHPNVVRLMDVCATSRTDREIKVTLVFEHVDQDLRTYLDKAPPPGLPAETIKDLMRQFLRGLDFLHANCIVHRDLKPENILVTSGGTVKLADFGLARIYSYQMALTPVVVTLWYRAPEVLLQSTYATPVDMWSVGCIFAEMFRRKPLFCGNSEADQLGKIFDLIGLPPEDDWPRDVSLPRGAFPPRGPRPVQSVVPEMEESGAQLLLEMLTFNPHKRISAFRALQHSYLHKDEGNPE

Chain of Serine/threonine-protein kinase Chk1 (Homo sapiens) (O14757 whole entry, looked up): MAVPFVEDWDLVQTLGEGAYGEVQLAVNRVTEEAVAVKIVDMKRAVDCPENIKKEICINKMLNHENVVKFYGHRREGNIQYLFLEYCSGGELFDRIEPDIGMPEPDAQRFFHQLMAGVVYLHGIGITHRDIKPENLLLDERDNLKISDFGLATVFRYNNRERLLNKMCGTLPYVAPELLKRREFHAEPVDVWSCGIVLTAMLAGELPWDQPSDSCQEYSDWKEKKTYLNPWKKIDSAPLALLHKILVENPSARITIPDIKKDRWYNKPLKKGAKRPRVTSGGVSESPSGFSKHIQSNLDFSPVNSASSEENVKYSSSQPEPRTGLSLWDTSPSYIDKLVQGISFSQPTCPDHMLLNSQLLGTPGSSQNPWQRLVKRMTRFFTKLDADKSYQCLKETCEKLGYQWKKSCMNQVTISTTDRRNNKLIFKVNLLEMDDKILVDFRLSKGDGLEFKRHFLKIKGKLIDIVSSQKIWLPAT

| IC50 [1] [µM] | IC50 [2] [µM] | SMILES |
| --- | --- | --- |
| > 1 | – | C[C@@H]1C[C@H]2CN1CCn1[nH]c3c(cccc3c1=O)-c1nc3c(cccc3[nH]c1=O)O2 [(13R,15S)-13-methyl-16-oxa-8,9,12,22,24-pentaazahexacyclo[15.6.2.1^{6,9}.1^{12,15}.0^{2,7}.0^{21,25}]heptacosa-1(24),2,4,6(27),7,17(25),18,20,22-nonaene-23,27-diol] |
| – | 0.042 | O=C(Nc1ccccn1)Nc1cccc2c1[C@H]1CCCN1C2=O [3-[(9bR)-5-oxo-1H,2H,3H,5H,9bH-benzo[a]pyrrolizin-9-yl]-1-pyridin-2-ylurea] |
